Assays:
Type in all cases: cell-based
[1] = tested on: total germ count of walnut shell meal slurry; test: Germ content determination (Ph. Eur. 6.8, Chapter 2.6.12) of aqueous walnut shell meal slurry: total germ count
Experimental: (§1) Test Equipment: • A BF 720 incubator is used. • A spiral plater is used as a plating device, with which a predefined volume of the suspension to be checked for germs is applied to the culture medium. For example, an Eddy-Jet 2W spiral plater is used.
(§2) The germ count takes place in the screening by the Envirocheck® system for confirmation according to the Ph Eur.6.8. Chapter 2.6.12.
(§3) Neutralization: • A neutralization, if it is to be carried out, takes place using 50% NaOH.
(§4) Incubation: • Bacteria: 2-3 days at 30+/−2° C. in the corresponding incubators; • Yeast/fungus: 3-5 days at room temperature away from light.
Following a predefined time span T in minutes, one sample each was collected and incubated for 48 hours in an incubator in order to subsequently determine its germ load.
(§5) The germ count after incubation takes place using the Environcheck® test sticks immediately or in an outside laboratory. For the external check, the product is cooled and stored for at least 1 day at 8° C. and transferred in a polystyrene box.
(§6) The germ content determination is based on the Ph. Eur.6.8—germ content, Chapter 2.6.12
The subsequent incubation of the sample took place over 48 hours.
(§7) The sample was then again adjusted to pH 7 using sodium hydroxide solution and incubated in the incubator for 48 hours. The germs in the individual samples were subsequently counted again using the Envirocheck® system internally or using an outside institute by a previously cooled stored product for 1 day.
The germ count determination is based on the Ph. Eur. 6.8—Germ content, Chapter 2.6.12

[2] = tested on: Bacteria (aerobic spore-formers); test: Germ content determination (Ph. Eur. 6.8, Chapter 2.6.12) of aqueous walnut shell meal slurry: bacteria
Experimental: as §1, §2
(§8) Subculturing: • The subculturing is carried out by a spiral plater using a corresponding program, depending on the requirements (for example, in one program, higher germ quantities may be more easily broken down by the gradient of the applied product or, in another program, a greater amount may be applied, which drops the lower determination limit). • One (in the case of double samples, two) fungus culture medium and one bacteria culture medium each are taken for each sample. • Standard total germ count checks are performed with no double determination.
as §3, §4
(§9) . This amount was maintained at pH 2.9 in the subsequent tests. Following a predefined time span T in minutes, one sample each was collected and incubated for 48 hours in an incubator in order to subsequently determine its germ load. The time span T thus corresponds to the contact time of the disinfectant, in the present case only citric acid.
as §5, §6
as §7, with “[…]. The sample” for “The sample”
(§10) . The germ count determination is based on the Ph. Eur. 6.8—Germ content, Chapter 2.6.12

Fungi = test: Germ content determination (Ph. Eur. 6.8, Chapter 2.6.12) of aqueous walnut shell meal slurry: fungi
Experimental: as §1, §2, §8, §3, §4, §9, §5, §6
as §7, with “[…]. The sample” for “The sample”
as §10

Yeasts = test: Germ content determination (Ph. Eur. 6.8, Chapter 2.6.12) of aqueous walnut shell meal slurry: yeasts
Experimental: as §1, §2, §8, §3, §4, §9, §5, §6
as §7, with “[…]. The sample” for “The sample”
as §10

[3] = pH 2.9, contact time 15 minutes
[4] = pH 2.9, contact time 30 minutes
[5] = pH 2.9, contact time 45 minutes
[6] = pH 2.9, contact time 60 minutes

O=C(O)CC(O)(CC(=O)O)C(=O)O [citric acid]
TGC (total germ count) [1, 3]: 250 CFU/g or mL | TGC (total germ count) [1, 4]: 295 CFU/g or mL | TGC (total germ count) [1, 5]: 235 CFU/g or mL | Bacteria [2, 3]: 60 CFU/g or mL | Bacteria [2, 4]: 100 CFU/g or mL | Bacteria [2, 5]: 200 CFU/g or mL | Bacteria [2, 6]: 170 CFU/g or mL | Fungi (Fungi; [3]): 50 CFU/g or mL | Fungi (Fungi; [4]): 55 CFU/g or mL | Fungi (Fungi; [5]): 35 CFU/g or mL | Fungi (Fungi; [6]): 20 CFU/g or mL | Yeasts (Yeasts; [3]): 140 CFU/g or mL | Yeasts (Yeasts; [4]): 140 CFU/g or mL | Yeasts (Yeasts; [5]): — (<7 CFU/g or mL) | Yeasts (Yeasts; [6]): 35 CFU/g or mL

CC(O)C(=O)O (stereo not shown) [lactic acid]
contact time after which germ load reduction clearly identifiable ([1]; pH 2.9): 5 min

Source: patent US20240041037A1, “DISINFECTANT AND USE THEREOF” (priority 2021, published 2024)
